In PubChem BioAssay (NCI):
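Assay format: 96-well plates, 48-hour exposure. At the GI50, growth is halved. TGI: concentration producing complete growth inhibition.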

Experiments:
Assay in all cases: NCI tumour cell line growth inhibition, 48 h
NCI-H226 lung = test system: NCI-H226 lung
NCI-H23 lung = test system: NCI-H23 lung
NCI-H460 lung = test system: NCI-H460 lung
NCI-H522 lung = test system: NCI-H522 lung
NCI/ADR-RES ovarian = test system: NCI/ADR-RES ovarian
OVCAR-3 ovarian = test system: OVCAR-3 ovarian
OVCAR-4 ovarian = test system: OVCAR-4 ovarian
OVCAR-5 ovarian = test system: OVCAR-5 ovarian
OVCAR-8 ovarian = test system: OVCAR-8 ovarian
PC-3 prostate = test system: PC-3 prostate
RPMI-8226 leukemia = test system: RPMI-8226 leukemia
RXF 393 renal = test system: RXF 393 renal
SF-268 CNS = test system: SF-268 CNS
SF-295 CNS = test system: SF-295 CNS
SF-539 CNS = test system: SF-539 CNS
SK-MEL-2 melanoma = test system: SK-MEL-2 melanoma
SK-MEL-28 melanoma = test system: SK-MEL-28 melanoma
SK-OV-3 ovarian = test system: SK-OV-3 ovarian
SN12C renal = test system: SN12C renal
SNB-19 CNS = test system: SNB-19 CNS
SNB-75 CNS = test system: SNB-75 CNS
SR leukemia = test system: SR leukemia
SW-620 colon = test system: SW-620 colon
T-47D breast = test system: T-47D breast
TK-10 renal = test system: TK-10 renal
U251 CNS = test system: U251 CNS
UACC-257 melanoma = test system: UACC-257 melanoma
UACC-62 melanoma = test system: UACC-62 melanoma
UO-31 renal = test system: UO-31 renal

Compound `CC(=O)O[C@@H]1C(=O)N(c2cnccn2)[C@H]1c1ccccc1[N+](=O)[O-]` has a TGI (NCI-H226 lung) of 9.4 µM, a GI50 (NCI-H23 lung) of 369 nM and a TGI (NCI-H23 lung) of 13 µM. It also gave a GI50 (NCI-H460 lung) of 346 nM, a TGI (NCI-H460 lung) of 10.8 µM and a GI50 (NCI-H522 lung) of 184 nM. For the same compound, the TGI (NCI-H522 lung) was 436 nM, the GI50 (NCI/ADR-RES ovarian) was 311 nM and the TGI (NCI/ADR-RES ovarian) was 7.51 µM. It also gave a GI50 (OVCAR-3 ovarian) of 288 nM, a TGI (OVCAR-3 ovarian) of 3.3 µM and a GI50 (OVCAR-4 ovarian) of 720 nM. For the same compound, the TGI (OVCAR-4 ovarian) was over 100 µM, the GI50 (OVCAR-5 ovarian) was 550 nM and the TGI (OVCAR-5 ovarian) was 16.6 µM. It also gave a GI50 (OVCAR-8 ovarian) of 299 nM, a TGI (OVCAR-8 ovarian) of 946 nM and a GI50 (PC-3 prostate) of 582 nM. The TGI (PC-3 prostate) was 25.7 µM, the GI50 (RPMI-8226 leukemia) was 384 nM and the TGI (RPMI-8226 leukemia) was 22.8 µM. For the same compound, the GI50 (RXF 393 renal) was 520 nM, the TGI (RXF 393 renal) was 3.56 µM and the GI50 (SF-268 CNS) was 566 nM. The TGI (SF-268 CNS) was over 69.5 µM, the GI50 (SF-295 CNS) was 865 nM and the TGI (SF-295 CNS) was 12.4 µM. The GI50 (SF-539 CNS) was 234 nM, the TGI (SF-539 CNS) was 575 nM and the GI50 (SK-MEL-2 melanoma) was 1960 nM. It also gave a TGI (SK-MEL-2 melanoma) of over 100 µM, a GI50 (SK-MEL-28 melanoma) of 926 nM and a TGI (SK-MEL-28 melanoma) of 27.4 µM. The GI50 (SK-OV-3 ovarian) was 781 nM, the TGI (SK-OV-3 ovarian) was over 100 µM and the GI50 (SN12C renal) was 432 nM. The TGI (SN12C renal) was 13.8 µM, the GI50 (SNB-19 CNS) was 1860 nM and the TGI (SNB-19 CNS) was over 100 µM. For the same compound, the GI50 (SNB-75 CNS) was 357 nM, the TGI (SNB-75 CNS) was 3.1 µM and the GI50 (SR leukemia) was 350 nM. The TGI (SR leukemia) was over 100 µM, the GI50 (SW-620 colon) was 396 nM and the TGI (SW-620 colon) was 19.3 µM. For the same compound, the GI50 (T-47D breast) was 18.5 µM, the TGI (T-47D breast) was over 100 µM and the GI50 (TK-10 renal) was 14 µM. For the same compound, the TGI (TK-10 renal) was 49.9 µM, the GI50 (U251 CNS) was 366 nM and the TGI (U251 CNS) was 10.6 µM. It also gave a GI50 (UACC-257 melanoma) of 992 nM, a TGI (UACC-257 melanoma) of 63 µM and a GI50 (UACC-62 melanoma) of 327 nM. It also gave a TGI (UACC-62 melanoma) of 18.8 µM, a GI50 (UO-31 renal) of 616 nM and a TGI (UO-31 renal) of 16.3 µM.
